According to US20260092071A1, “COMPOUNDS AND COMPOSITIONS AS SMARCA2/4 DEGRADERS AND USES THEREOF” (REGENTS OF THE UNIVERSITY OF MICHIGAN, priority 2022, published 2026):

How the values were obtained:
[1] = molecular target: SMARCA2 (Homo sapiens, UniProt P51531); assay: HiBit assay in engineered HT1080 CRISPR knock-in cell, 6 hrs (B series), SMARCA2; assay type: cell-based; settings: 6 hrs incubation; for DC50: HT1080 CRISPR knock-in cells, read-out: SMARC A2 HT1080 HiBit DC50; for Dmax: HT-1080, HT1080 CRISPR knock-in cells, read-out: SMARC A2 HT1080 HiBit Dmax (%)
Method: (§1) The HiBit assay was performed using engineered HT1080 CRISPR knock-in cell utilizing the Nano-Glo HiBiT Lytic Detection System from Promega, Cat #N3040. Compounds were transferred, 25 nL DMSO or test compounds (final DMSO @ 0.1%) to intermediate plates (Corning3570) using ECHO550. Cells were seeded onto compounds at 2000 cells/25 μL/well and incubated for 6 hrs in a tissue culture incubator at 37° C. and 5% CO2. The LgBiT Protein was diluted at 1:100 and the Nano-Glo® HiBIT Lytic Substrate 1:50 into an appropriate volume of room temperature using the Nano-Glo® HiBiT Lytic Buffer. At the end of compound incubation time, 15 ul of the detection reagent was added to each well (without LgBiT for negative control wells) using the Thermo Scientific multidrop combi. The plate was shaken for 10 mins at RT using Combi. After briefly centrifugation (2000 rpm 1 mins), plate was read on Envision (Ultrasensitive luminescence model).

[2] = molecular target: SMARCA4 (Homo sapiens, UniProt P51532); assay: HiBit assay in engineered HT1080 CRISPR knock-in cell, 6 hrs (B series), SMARCA4; assay type: cell-based; settings: 6 hrs incubation; for DC50: HT1080 CRISPR knock-in cells, read-out: SMARC A4 HT1080 HiBit DC50; for Dmax: HT-1080, HT1080 CRISPR knock-in cells, read-out: SMARC A4 HT1080 HiBit Dmax(%)
Method: as §1

Chain of SMARCA4 (P51532 whole entry): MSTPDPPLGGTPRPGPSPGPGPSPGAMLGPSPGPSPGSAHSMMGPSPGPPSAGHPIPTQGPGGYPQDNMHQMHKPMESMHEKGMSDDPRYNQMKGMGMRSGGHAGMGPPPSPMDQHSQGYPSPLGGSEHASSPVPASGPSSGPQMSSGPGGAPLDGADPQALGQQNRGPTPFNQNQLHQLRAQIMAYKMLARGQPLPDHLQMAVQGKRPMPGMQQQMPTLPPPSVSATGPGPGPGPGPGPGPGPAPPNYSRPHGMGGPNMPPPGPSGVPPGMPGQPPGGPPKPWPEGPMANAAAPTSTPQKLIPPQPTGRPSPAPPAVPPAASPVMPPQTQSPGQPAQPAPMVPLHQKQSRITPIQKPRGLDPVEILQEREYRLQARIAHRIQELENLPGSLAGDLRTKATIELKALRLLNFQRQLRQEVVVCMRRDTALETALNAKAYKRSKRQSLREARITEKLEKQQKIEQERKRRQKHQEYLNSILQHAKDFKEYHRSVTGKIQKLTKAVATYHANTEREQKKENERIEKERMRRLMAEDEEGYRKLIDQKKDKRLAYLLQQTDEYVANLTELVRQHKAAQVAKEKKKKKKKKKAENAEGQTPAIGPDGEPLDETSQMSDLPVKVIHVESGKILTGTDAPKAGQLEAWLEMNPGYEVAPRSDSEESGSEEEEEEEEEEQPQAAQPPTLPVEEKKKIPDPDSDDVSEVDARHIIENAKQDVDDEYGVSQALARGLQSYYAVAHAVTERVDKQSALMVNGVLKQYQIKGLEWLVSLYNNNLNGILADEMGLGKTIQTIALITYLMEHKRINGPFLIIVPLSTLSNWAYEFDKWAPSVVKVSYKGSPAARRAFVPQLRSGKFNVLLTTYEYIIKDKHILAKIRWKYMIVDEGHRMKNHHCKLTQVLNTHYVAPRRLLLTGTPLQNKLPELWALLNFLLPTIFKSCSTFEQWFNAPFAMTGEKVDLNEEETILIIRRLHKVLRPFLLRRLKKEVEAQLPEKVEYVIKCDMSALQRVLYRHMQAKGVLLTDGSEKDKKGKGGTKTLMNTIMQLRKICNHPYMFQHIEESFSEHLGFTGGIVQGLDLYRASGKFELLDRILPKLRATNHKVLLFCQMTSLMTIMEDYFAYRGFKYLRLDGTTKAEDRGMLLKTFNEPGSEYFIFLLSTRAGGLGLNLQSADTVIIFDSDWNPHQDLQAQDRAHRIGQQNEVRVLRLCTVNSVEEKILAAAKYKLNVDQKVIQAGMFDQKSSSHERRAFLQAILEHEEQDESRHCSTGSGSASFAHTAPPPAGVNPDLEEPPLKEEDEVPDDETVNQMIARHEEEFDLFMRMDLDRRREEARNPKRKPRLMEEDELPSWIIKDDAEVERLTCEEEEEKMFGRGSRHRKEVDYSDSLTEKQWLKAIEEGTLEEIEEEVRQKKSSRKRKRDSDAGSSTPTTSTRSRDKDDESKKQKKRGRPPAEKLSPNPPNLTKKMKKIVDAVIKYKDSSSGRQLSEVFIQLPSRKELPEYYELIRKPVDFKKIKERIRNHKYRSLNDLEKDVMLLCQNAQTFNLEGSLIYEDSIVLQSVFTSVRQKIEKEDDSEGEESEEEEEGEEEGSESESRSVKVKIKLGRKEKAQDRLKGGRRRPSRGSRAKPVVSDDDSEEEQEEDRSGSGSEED
Chain of SMARCA2 (P51531 whole entry): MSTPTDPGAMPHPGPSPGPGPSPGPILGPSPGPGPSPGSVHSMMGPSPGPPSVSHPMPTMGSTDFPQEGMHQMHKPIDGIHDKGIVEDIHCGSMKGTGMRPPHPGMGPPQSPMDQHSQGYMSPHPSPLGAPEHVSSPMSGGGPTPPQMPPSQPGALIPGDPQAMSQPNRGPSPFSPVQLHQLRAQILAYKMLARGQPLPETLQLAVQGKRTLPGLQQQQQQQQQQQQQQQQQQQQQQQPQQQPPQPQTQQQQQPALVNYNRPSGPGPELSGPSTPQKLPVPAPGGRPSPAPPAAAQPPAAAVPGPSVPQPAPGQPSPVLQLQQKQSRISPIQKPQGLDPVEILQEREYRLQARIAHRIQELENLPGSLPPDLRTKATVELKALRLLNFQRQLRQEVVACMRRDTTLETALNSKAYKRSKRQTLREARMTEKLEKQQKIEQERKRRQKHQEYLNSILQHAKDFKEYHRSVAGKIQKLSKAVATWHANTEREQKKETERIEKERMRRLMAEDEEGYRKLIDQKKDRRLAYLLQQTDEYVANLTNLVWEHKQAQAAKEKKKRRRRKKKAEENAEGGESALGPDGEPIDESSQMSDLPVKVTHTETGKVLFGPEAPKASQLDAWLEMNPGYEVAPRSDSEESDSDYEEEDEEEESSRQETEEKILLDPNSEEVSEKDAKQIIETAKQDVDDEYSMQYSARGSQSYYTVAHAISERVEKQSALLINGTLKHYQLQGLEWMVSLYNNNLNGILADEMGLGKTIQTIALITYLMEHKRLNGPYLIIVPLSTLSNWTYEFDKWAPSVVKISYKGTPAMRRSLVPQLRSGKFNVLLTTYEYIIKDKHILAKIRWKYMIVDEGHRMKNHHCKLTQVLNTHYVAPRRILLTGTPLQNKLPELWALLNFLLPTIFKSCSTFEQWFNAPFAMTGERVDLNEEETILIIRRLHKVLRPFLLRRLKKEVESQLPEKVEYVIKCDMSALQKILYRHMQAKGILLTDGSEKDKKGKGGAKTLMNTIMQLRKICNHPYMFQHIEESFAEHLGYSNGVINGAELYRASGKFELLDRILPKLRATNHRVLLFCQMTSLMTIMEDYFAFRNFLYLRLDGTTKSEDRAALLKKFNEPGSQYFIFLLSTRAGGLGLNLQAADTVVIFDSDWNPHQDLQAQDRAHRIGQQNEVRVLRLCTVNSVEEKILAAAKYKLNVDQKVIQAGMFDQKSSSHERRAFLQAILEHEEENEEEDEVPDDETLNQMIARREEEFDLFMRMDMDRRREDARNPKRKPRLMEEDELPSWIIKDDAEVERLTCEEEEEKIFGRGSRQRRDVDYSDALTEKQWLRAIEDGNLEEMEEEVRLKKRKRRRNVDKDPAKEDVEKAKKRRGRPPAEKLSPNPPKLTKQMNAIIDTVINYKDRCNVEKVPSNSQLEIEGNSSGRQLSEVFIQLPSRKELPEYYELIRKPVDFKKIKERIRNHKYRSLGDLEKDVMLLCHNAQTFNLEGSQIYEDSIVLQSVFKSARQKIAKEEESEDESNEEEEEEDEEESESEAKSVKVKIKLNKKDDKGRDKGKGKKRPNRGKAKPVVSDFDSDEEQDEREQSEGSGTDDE

DC50 [1]	Dmax [1]	DC50 [2]	Dmax [2]	Compound
< 100 nM	> 90%	< 100 nM	50 to 69%	Cc1ncsc1-c1ccc([C@H](C)NC(=O)[C@@H]2C[C@@H](O)CN2C(=O)[C@@H](NC(=O)[C@H]2CC[C@H](CN3CCC(c4ccc5c(c4)C(C)(C)c4nc(=O)c6c(Cl)cccc6n4-5)CC3)CC2)C(C)(C)C)cc1 [Compound B1, (2S,4R)-1-((S)-2-((1r,4S)-4-((4-(4-chloro-7,7-dimethyl-5-oxo-5,7-dihydroindolo[1,2-a]quinazolin-9-yl)piperidin-1-yl)methyl)cyclohexane-1-carboxamido)-3,3-dimethylbutanoyl)-4-hydroxy-N—((S)-1-(4-(4-methylthiazol-5-yl)phenyl)ethyl)pyrrolidine-2-carboxamide]
< 100 nM	> 90%	< 100 nM	> 90%	Cc1ncsc1-c1ccc([C@H](C)NC(=O)[C@@H]2C[C@@H](O)CN2C(=O)[C@@H](NC(=O)CN2CCC(c3ccc4c(c3)C(C)(C)c3nc(=O)c5c(Br)cccc5n3-4)CC2)C(C)(C)C)cc1 [Compound B5, (2S,4R)-1-((S)-2-(2-(4-(4-bromo-7,7-dimethyl-5-oxo-5,7-dihydroindolo[1,2-a]quinazolin-9-yl)piperidin-1-yl)acetamido)-3,3-dimethylbutanoyl)-4-hydroxy-N—((S)-1-(4-(4-methylthiazol-5-yl)phenyl)ethyl)pyrrolidine-2-carboxamide]
< 100 nM	> 90%	< 100 nM	> 90%	Cc1ncsc1-c1ccc([C@H](C)NC(=O)[C@@H]2C[C@@H](O)CN2C(=O)[C@@H](NC(=O)CN2CCC(c3ccc4c(c3)C(C)(C)c3nc(=O)c5c(Cl)cccc5n3-4)CC2)C(C)(C)C)cc1 [Compound B6, (2S,4R)-1-((S)-2-(2-(4-(4-chloro-7,7-dimethyl-5-oxo-5,7-dihydroindolo[1,2-a]quinazolin-9-yl)piperidin-1-yl)acetamido)-3,3-dimethylbutanoyl)-4-hydroxy-N—((S)-1-(4-(4-methylthiazol-5-yl)phenyl)ethyl)pyrrolidine-2-carboxamide]
< 100 nM	> 90%	< 100 nM	> 90%	Cc1ncsc1-c1ccc([C@H](CCCCCN2CCC(c3ccc4c(c3)C(C)(C)c3nc(=O)c5c(Cl)cccc5n3-4)CC2)NC(=O)[C@@H]2C[C@@H](O)CN2C(=O)[C@@H](NC(=O)C2(F)CC2)C(C)(C)C)cc1 [Compound B7, (2S,4R)—N—((S)-6-(4-(4-chloro-7,7-dimethyl-5-oxo-5,7-dihydroindolo[1,2-a]quinazolin-9-yl)piperidin-1-yl)-1-(4-(4-methylthiazol-5-yl)phenyl)hexyl)-1-((S)-2-(1-fluorocyclopropane-1-carboxamido)-3,3-dimethylbutanoyl)-4-hydroxypyrrolidine-2-carboxamide]
< 100 nM	> 90%	< 100 nM	70 to 90%	Cc1ncsc1-c1ccc([C@H](C)NC(=O)[C@@H]2C[C@@H](O)CN2C(=O)C(c2cc(CN3CCC(c4ccc5c(c4)C(C)(C)c4nc(=O)c6c(Cl)cccc6n4-5)CC3)no2)C(C)C)cc1 (stereo partly drawn) [Compound B8, (2S,4R)-1-(2-(3-((4-(4-chloro-7,7-dimethyl-5-oxo-5,7-dihydroindolo[1,2-a]quinazolin-9-yl)piperidin-1-yl)methyl)isoxazol-5-yl)-3-methylbutanoyl)-4-hydroxy-N—((S)-1-(4-(4-methylthiazol-5-yl)phenyl)ethyl)pyrrolidine-2-carboxamide]

More lines, now with the values behind:

Compound	DC50 [1]	Dmax [1]	DC50 [2]	Dmax [2]
Cc1ncsc1-c1ccc([C@H](C)NC(=O)C2C[C@@H](O)CN2C(=O)[C@@H](c2cc(OCCCCN3CCC(c4cccc5c4C(C)(C)c4nc(=O)c6c(Cl)cccc6n4-5)CC3)no2)C(C)C)cc1 (stereo in doubt) [Compound B98, (2S,4R)-1-(2-(3-(4-(4-(4-chloro-7,7-dimethyl-5-oxo-5,7-dihydroindolo[1,2-a]quinazolin-8-yl)piperidin-1-yl)butoxy)isoxazol-5-yl)-3-methylbutanoyl)-4-hydroxy-N-((S)-1-(4-(4-methylthiazol-5-yl)phenyl)ethyl)pyrrolidine-2-carboxamide]	< 100 nM	70 to 90%	100 to 500 nM	< 50%
Cc1ncsc1-c1ccc(C(CN2CCOCC2)NC(=O)[C@@H]2C[C@@H](O)CN2C(=O)[C@H](c2cc(N3CCC(CN4CCN(c5ccc6c(c5)-n5c(nc(=O)c7c(Cl)cccc75)C65CCCCC5)CC4)CC3)no2)C(C)C)cc1 (stereo in doubt) [Compound B160, (2S,4R)-1-((S)-2-(3-(4-((4-(4′-chloro-5′-oxo-5′H-spiro[cyclohexane-1,7′-indolo[1,2-a]quinazolin]-10′-yl)piperazin-1-yl)methyl)piperidin-1-yl)isoxazol-5-yl)-3-methylbutanoyl)-4-hydroxy-N-((S)-1-(4-(4-methylthiazol-5-yl)phenyl)-2-morpholinoethyl)pyrrolidine-2-carboxamide]	< 100 nM	> 90%	< 100 nM	50 to 69%
Cc1ncsc1-c1ccc([C@H](CCCCCN2CCC(c3ccc4c(c3)C(C)(C)c3nc(=O)c5c(Br)cccc5n3-4)CC2)NC(=O)[C@@H]2C[C@@H](O)CN2C(=O)[C@@H](NC(=O)C2(F)CC2)C(C)(C)C)cc1 [Compound B2, (2S,4R)—N—((S)-6-(4-(4-bromo-7,7-dimethyl-5-oxo-5,7-dihydroindolo[1,2-a]quinazolin-9-yl)piperidin-1-yl)-1-(4-(4-methylthiazol-5-yl)phenyl)hexyl)-1-((S)-2-(1-fluorocyclopropane-1-carboxamido)-3,3-dimethylbutanoyl)-4-hydroxypyrrolidine-2-carboxamide]	< 100 nM	> 90%	< 100 nM	> 90%
Cc1ncsc1-c1ccc([C@H](CCCCCN2CCC(c3ccc4c(c3)C(C)(C)c3nc(=O)c5c(Br)cccc5n3-4)CC2)NC(=O)[C@@H]2C[C@@H](O)CN2C(=O)[C@@H](NC(=O)C2(C#N)CC2)C(C)(C)C)cc1 [Compound B3, (2S,4R)—N—((S)-6-(4-(4-bromo-7,7-dimethyl-5-oxo-5,7-dihydroindolo[1,2-a]quinazolin-9-yl)piperidin-1-yl)-1-(4-(4-methylthiazol-5-yl)phenyl)hexyl)-1-((S)-2-(1-cyanocyclopropane-1-carboxamido)-3,3-dimethylbutanoyl)-4-hydroxypyrrolidine-2-carboxamide]	< 100 nM	> 90%	< 100 nM	> 90%
Cc1ncsc1-c1ccc([C@H](C)NC(=O)[C@@H]2C[C@@H](O)CN2C(=O)[C@@H](c2cc(OCCN3CCC(c4ccc5c(c4)C(C)(C)c4nc(=O)c6c(Cl)cccc6n4-5)CC3)no2)C(C)C)cc1 [Compound B4, (2S,4R)-1-((R)-2-(3-(2-(4-(4-chloro-7,7-dimethyl-5-oxo-5,7-dihydroindolo[1,2-a]quinazolin-9-yl)piperidin-1-yl)ethoxy)isoxazol-5-yl)-3-methylbutanoyl)-4-hydroxy-N—((S)-1-(4-(4-methylthiazol-5-yl)phenyl)ethyl)pyrrolidine-2-carboxamide]	< 100 nM	> 90%	< 100 nM	70 to 90%
Cc1ncsc1-c1ccc([C@H](C)NC(=O)[C@@H]2C[C@@H](O)CN2C(=O)[C@@H](c2cc(N3CCC(CN4CCC(c5ccc6c(c5)C(C)(C)c5nc(=O)c7c(Cl)cccc7n5-6)CC4)CC3)no2)C(C)C)cc1 [Compound B9, (2S,4R)-1-((R)-2-(3-(4-((4-(4-chloro-7,7-dimethyl-5-oxo-5,7-dihydroindolo[1,2-a]quinazolin-9-yl)piperidin-1-yl)methyl)piperidin-1-yl)isoxazol-5-yl)-3-methylbutanoyl)-4-hydroxy-N—((S)-1-(4-(4-methylthiazol-5-yl)phenyl)ethyl)pyrrolidine-2-carboxamide]	< 100 nM	> 90%	< 100 nM	> 90%
Cc1ncsc1-c1ccc([C@H](C)NC(=O)[C@@H]2C[C@@H](O)CN2C(=O)[C@@H](c2cc(N3CCC(CN4CCC(c5cccc6c5C(C)(C)c5nc(=O)c7c(Cl)cccc7n5-6)CC4)CC3)no2)C(C)C)cc1 [Compound B10, (2S,4R)-1-((R)-2-(3-(4-((4-(4-chloro-7,7-dimethyl-5-oxo-5,7-dihydroindolo[1,2-a]quinazolin-8-yl)piperidin-1-yl)methyl)piperidin-1-yl)isoxazol-5-yl)-3-methylbutanoyl)-4-hydroxy-N—((S)-1-(4-(4-methylthiazol-5-yl)phenyl)ethyl)pyrrolidine-2-carboxamide]	< 100 nM	> 90%	< 100 nM	70 to 90%
Cc1ncsc1-c1ccc([C@H](C)NC(=O)[C@@H]2C[C@@H](O)CN2C(=O)[C@@H](c2cc(OCCCN3CCC(c4ccc5c(c4)C(C)(C)c4nc(=O)c6c(Cl)cccc6n4-5)CC3)no2)C(C)C)cc1 [Compound B11, (2S,4R)-1-((R)-2-(3-(3-(4-(4-chloro-7,7-dimethyl-5-oxo-5,7-dihydroindolo[1,2-a]quinazolin-9-yl)piperidin-1-yl)propoxy)isoxazol-5-yl)-3-methylbutanoyl)-4-hydroxy-N-((S)-1-(4-(4-methylthiazol-5-yl)phenyl)ethyl)pyrrolidine-2-carboxamide]	< 100 nM	> 90%	< 100 nM	> 90%
